The target in one test is Melanocortin receptor 4 (Homo sapiens, UniProt P32245).
The next test deals with Mu-type opioid receptor (Homo sapiens, UniProt P35372). In words: biochemical. Format: functional.
The target in test [1] is T1, Peroxisome proliferator-activated receptor gamma (Homo sapiens, UniProt P37231).
T1 sequence (P37231 whole entry): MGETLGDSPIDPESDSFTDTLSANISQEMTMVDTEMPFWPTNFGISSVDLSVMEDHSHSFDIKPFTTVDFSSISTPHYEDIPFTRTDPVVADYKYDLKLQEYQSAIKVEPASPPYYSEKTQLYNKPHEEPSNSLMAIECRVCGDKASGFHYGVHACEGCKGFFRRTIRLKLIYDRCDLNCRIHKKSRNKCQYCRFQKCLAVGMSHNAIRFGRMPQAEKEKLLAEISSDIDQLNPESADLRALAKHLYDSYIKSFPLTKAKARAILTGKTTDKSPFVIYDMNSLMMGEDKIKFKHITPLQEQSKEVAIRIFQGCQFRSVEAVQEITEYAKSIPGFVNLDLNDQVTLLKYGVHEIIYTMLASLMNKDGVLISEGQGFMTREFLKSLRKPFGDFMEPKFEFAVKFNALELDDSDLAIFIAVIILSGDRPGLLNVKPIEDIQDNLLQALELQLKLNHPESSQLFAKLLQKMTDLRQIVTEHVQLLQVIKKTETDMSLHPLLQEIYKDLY
Format: functional.

Test [2] concerns the target T2, Neuropeptide Y receptor type 2 (Homo sapiens, UniProt P49146).
T2 sequence (P49146 whole entry): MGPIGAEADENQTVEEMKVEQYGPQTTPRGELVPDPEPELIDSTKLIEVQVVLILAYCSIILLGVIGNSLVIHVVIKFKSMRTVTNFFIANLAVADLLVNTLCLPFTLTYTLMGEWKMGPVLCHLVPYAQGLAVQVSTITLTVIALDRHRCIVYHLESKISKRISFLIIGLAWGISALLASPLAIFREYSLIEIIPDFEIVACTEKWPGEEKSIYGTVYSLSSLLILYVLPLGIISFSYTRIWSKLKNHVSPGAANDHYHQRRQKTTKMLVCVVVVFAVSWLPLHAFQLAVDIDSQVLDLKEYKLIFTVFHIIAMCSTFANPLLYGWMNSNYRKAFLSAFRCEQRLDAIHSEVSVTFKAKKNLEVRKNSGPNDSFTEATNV

The target of test [3] is T3, Endothelin receptor type B (Homo sapiens, UniProt P24530).
T3 sequence (P24530 whole entry): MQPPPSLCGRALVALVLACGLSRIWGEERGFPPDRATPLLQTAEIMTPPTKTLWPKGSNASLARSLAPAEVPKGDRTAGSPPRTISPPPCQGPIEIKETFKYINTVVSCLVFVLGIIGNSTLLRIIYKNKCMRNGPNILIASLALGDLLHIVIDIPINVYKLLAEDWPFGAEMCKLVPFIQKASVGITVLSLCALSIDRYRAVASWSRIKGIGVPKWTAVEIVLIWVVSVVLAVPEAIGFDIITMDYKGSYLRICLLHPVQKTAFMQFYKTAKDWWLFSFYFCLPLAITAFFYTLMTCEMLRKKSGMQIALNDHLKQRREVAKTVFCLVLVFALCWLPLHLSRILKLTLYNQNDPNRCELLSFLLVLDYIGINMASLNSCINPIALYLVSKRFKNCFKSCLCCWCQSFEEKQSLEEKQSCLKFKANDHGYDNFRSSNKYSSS

For test [4], the target named is T4, Alpha-1A adrenergic receptor (Homo sapiens, UniProt P35348).
T4 sequence (P35348 whole entry): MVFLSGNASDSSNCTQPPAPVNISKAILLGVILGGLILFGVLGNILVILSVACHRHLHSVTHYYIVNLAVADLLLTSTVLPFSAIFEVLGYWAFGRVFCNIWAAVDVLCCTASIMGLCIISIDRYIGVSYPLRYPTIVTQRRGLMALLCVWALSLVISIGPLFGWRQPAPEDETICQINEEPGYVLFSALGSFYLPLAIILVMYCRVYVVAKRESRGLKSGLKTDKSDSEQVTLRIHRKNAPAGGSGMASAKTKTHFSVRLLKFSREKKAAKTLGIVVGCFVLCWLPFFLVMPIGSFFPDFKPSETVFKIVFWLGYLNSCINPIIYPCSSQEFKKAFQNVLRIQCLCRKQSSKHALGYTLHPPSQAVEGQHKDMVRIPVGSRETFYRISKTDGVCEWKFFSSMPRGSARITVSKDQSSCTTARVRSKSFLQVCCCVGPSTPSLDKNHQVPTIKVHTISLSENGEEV

The target in the next test is T5, Progesterone receptor (Homo sapiens, UniProt P06401).
T5 sequence (P06401 whole entry): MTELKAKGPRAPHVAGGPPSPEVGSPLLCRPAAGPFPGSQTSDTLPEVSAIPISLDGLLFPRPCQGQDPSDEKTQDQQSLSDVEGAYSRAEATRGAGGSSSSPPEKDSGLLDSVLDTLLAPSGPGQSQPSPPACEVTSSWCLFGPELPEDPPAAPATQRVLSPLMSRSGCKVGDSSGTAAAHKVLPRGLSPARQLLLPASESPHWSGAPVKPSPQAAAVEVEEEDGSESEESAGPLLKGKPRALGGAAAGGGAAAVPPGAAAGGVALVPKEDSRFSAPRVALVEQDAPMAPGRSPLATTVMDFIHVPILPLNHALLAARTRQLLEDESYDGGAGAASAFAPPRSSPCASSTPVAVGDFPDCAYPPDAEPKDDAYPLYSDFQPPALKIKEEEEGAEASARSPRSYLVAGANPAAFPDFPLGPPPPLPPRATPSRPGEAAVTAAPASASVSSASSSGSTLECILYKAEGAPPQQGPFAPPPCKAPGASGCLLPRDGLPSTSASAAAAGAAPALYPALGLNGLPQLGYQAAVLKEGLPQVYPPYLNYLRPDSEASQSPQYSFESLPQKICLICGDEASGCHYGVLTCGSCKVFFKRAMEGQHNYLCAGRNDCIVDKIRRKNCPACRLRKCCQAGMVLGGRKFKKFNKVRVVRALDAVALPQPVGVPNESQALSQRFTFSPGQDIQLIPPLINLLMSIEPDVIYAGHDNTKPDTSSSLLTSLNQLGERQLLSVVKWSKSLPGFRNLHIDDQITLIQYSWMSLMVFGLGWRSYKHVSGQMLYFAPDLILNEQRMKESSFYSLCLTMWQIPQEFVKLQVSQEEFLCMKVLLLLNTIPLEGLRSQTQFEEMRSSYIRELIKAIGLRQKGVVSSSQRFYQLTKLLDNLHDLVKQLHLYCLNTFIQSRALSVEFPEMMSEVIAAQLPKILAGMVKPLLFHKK
Note: assay procedure not described here.

Sequence of Mu-type opioid receptor (P35372 whole entry): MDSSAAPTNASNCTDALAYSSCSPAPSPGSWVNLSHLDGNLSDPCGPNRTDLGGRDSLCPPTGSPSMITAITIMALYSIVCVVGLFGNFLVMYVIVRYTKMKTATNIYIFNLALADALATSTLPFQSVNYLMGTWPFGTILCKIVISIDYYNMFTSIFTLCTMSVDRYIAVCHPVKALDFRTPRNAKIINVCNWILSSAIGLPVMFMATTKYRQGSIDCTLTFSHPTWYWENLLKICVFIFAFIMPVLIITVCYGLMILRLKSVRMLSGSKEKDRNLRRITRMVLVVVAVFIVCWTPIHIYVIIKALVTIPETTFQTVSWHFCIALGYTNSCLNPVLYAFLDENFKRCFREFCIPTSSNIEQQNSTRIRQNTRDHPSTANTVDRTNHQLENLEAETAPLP
Sequence of Melanocortin receptor 4 (P32245 whole entry): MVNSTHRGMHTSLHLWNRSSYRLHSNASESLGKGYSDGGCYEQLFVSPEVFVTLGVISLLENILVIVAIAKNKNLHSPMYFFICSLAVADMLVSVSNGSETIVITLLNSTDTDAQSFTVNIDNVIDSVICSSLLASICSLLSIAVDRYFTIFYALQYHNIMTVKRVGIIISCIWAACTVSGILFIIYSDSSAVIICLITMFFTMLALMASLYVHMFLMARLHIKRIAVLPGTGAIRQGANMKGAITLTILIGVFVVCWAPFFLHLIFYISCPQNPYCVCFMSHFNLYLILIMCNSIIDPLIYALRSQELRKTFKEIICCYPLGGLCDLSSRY

For `CCCc1nc2c(C)cc(-c3nc4ccccc4n3C)cc2n1Cc1ccc(-c2ccccc2C(=O)O)cc1`, the AC50 at Melanocortin receptor 4 was above 30 µM; at Mu-type opioid receptor it was 3.7 µM; in test [1] it was above 30 µM; in test [2], above 30 µM; in test [3], above 30 µM; in test [4], above 10 µM. The AC50 on Progesterone receptor is above 30 µM.

In the case of `COc1cc(C(C)=O)ccc1OCCCN1CCC(c2noc3cc(F)ccc23)CC1` [ILOPERIDONE], the AC50 in test [1] was above 30 µM; in test [4] it was 0.0018 µM.

Take `CCOc1nc2cccc(C(=O)O)c2n1Cc1ccc(-c2ccccc2-c2nnn[nH]2)cc1`: the concentration at half-maximal activity (AC50) on Melanocortin receptor 4 is above 10 µM; in test [1] it was above 30 µM; in test [2], above 30 µM; in test [3], above 30 µM; in test [4], above 10 µM; on Progesterone receptor it was above 30 µM.

For the compound `CC(C)(O/N=C(\C(=O)N[C@@H]1C(=O)N2C(C(=O)[O-])=C(C[n+]3ccccc3)CS[C@H]12)c1csc(N)n1)C(=O)O` [CEFTAZIDIME], the AC50 is above 30 µM on Mu-type opioid receptor and above 300 µM in test [1].

As to `CCC(=O)O[C@]1(C(=O)CCl)[C@@H](C)C[C@H]2[C@@H]3CCC4=CC(=O)C=C[C@]4(C)[C@@]3(F)[C@@H](O)C[C@@]21C` [CLOBETASOL PROPIONATE], the AC50 (on Mu-type opioid receptor; in test [1]) was above 30 µM throughout.

By AC50 is commonly meant the midpoint of the concentration-response curve, whichever way the signal moves. Read a high AC50 as weaker potency.
